Like-named read-outs stand apart in the source and are kept apart here. One block for each compound: values may come before it. Starred links: 1 amine or outer side, 2 acyl side, 3 side chain; linkers in the order of their positions; H or OH if unused. Positions of bridges follow the written chain, without caps; N, C: chain ends. Non-standard residues stand in square brackets, D forms with d. Residues, ends and D or L forms follow the SMILES beside them. X1 = CC(C)CCCCCCCCC[C@H](CC(=O)[*:1])O[*:2]
Legend:
[1] = Turbidity of surfactant/lipid compositions, formation of macromolecular complexes (Example 1); type: physicochemical; conditions: 2.5% surfactant, 1% 90H lipid, ca. 0.01% S LPC co-surfactant (as 0.05% SL 80-3) in water, room temperature
Description: Briefly, to the appropriate volume of warm water (ca. 60° C.), SL 80-3 was added. […] 90H was then added gradually, with heating and stirring maintained throughout and for a further 45 minutes after completion.
After mixing the solution was stirred and heated to around 60-70° C.
The required quantity of warm lipid emulsion was slowly added to the warm surfactant solution while stirring with the temperature maintained.

[2] = co-surf. S LPC ca. 0.01% (as SL 80-3 0.05%)
[3] = cited from earlier work; for Average HLB: rough average of manufacturer and literature values
[4] = Surf. Brij 35P 2.5%, lipid 90H 1.0%, active agent 0.10%
[5] = Surf. Brij 35P 2.5%, lipid 90H 1.0%, active agent 0.25%
[6] = Surf. Volpo L23 2.5%, lipid 90H 1.0%, active agent 0.25%

Average Turbidity [1]: >150 FNU
Compound: O=C(O)C(O)c1ccccc1 (racemic) [Mandelic Acid, DL-Mandelic acid]

Compound: CC(C)CCC[C@@H](C)[C@H]1CC[C@H]2C3=CC=C4C[C@@H](O)CC[C@]4(C)[C@H]3CC[C@]12C [7-dehydrocholesterol]
Turbidity (FNU) [2, 4]: 58.4 FNU

Average Turbidity [1]: 13.16 FNU
Compound: CC(C)CCCCCCCCC[C@@H]1CC(=O)N[C@@H](CCC(=O)O)C(=O)N[C@@H](CC(C)C)C(=O)N[C@H](CC(C)C)C(=O)N[C@@H](C(C)C)C(=O)N[C@@H](CC(=O)O)C(=O)N[C@H](CC(C)C)C(=O)N[C@@H](CC(C)C)C(=O)O1 [Aminofect, Surfactin] (EL[dL]VD[dL]L; linker N-C via X1)

Turbidity (FNU) [2, 4]: 72.4 FNU
Compound: CCCCCCCCCCCCCCCC(=O)OC[C@H](O)[C@H]1OC(=O)C(O)=C1O [Ascorbyl palmitate]

Turbidity (FNU) [2, 4]: 52.9 FNU
Compound: COc1ccc(C(=O)CC(=O)c2ccc(C(C)(C)C)cc2)cc1 [Avobenzene]

Compound: O=C(O)c1ccccc1 [Benzoic Acid, Benzoic acid]
Average Turbidity [1]: >150 FNU

Turbidity (FNU) [2, 5]: 18.84 FNU
Compound: O=C(OCc1ccccc1)c1cccnc1 [Benzyl nicotinate]

Turbidity (FNU) [2, 4]: 19.24 FNU
Compound: CCCCC(=O)O[C@]1(C(=O)CO)[C@@H](C)C[C@H]2[C@@H]3CCC4=CC(=O)C=C[C@]4(C)[C@@]3(F)[C@@H](O)C[C@@]21C [Betamethasone 17-valerate]

Turbidity (FNU) [2, 6]: 19.40 FNU
Compound: Cc1c(C2(c3cc(Br)c(O)c(Br)c3C)OS(=O)(=O)c3ccccc32)cc(Br)c(O)c1Br [Bromocresol Green]

Turbidity (FNU) [2, 4]: 29.70 FNU
Compound: CC12CCC(CC1=O)C2(C)C (centres unmarked) [Camphor (S-Black)]

Turbidity (FNU) [2, 5]: 26.80 FNU
Compound: CC12CCC(CC1=O)C2(C)C (centres unmarked) [Camphor]

Average Turbidity [1]: >150 FNU
Compound: CCCCCCCCCC(=O)O [Capric Acid, Decanoic acid]

Compound: CCCCCC(=O)O [Caproic Acid, Hexanoic acid]
Average Turbidity [1]: >150 FNU

Compound: CC(C)CCC[C@@H](C)[C@H]1CC[C@H]2[C@@H]3CC=C4C[C@@H](OS(=O)(=O)O)CC[C@]4(C)[C@H]3CC[C@]12C [Cholesterol sulphate]
Turbidity (FNU) [2, 4]: 9.48 FNU

Turbidity (FNU) [2, 4]: 10.91 FNU
Compound: CC(C)CCC[C@@H](C)[C@H]1CC[C@H]2[C@@H]3CC=C4C[C@@H](O)CC[C@]4(C)[C@H]3CC[C@]12C [Cholesterol]

Turbidity (FNU) [2, 6]: 10.85 FNU
Compound: Cc1cc(C2CCCCC2)n(O)c(=O)c1 [Ciclopirox olamine, reference compound]

Turbidity (FNU) [2, 4]: 23.3 FNU
Compound: CCC(=O)O[C@]1(C(=O)CCl)[C@@H](C)C[C@H]2[C@@H]3CCC4=CC(=O)C=C[C@]4(C)[C@@]3(F)[C@@H](O)C[C@@]21C [Clobetasol Propionate]

Turbidity (FNU) [2, 4]: 10.4 FNU
Compound: Clc1ccccc1C(c1ccccc1)(c1ccccc1)n1ccnc1 [Clotrimazole]

Turbidity (FNU) [2, 4]: 6.38 FNU
Compound: O=C(CCCCc1ccc2c(c1)OCO2)N1CCCCC1 [Cosmoperine]

Turbidity (FNU) [2, 4]: 16.44 FNU
Turbidity (FNU) ([2]; Surf. Volpo L23 2.5%, lipid 90H 1.0%, active agent 0.10%): 21.85 FNU
Compound: O=C1OC2(c3cc(Br)c(O)c(Br)c3Oc3c2cc(Br)c(O)c3Br)c2c(Cl)c(Cl)c(Cl)c(Cl)c21 [D&C Red No. 27]

Turbidity (FNU) [2, 4]: 14.39 FNU
Compound: O=C(O)Cc1ccccc1Nc1c(Cl)cccc1Cl [Diclofenac]

Turbidity (FNU) [2, 6]: 71.50 FNU
Compound: Clc1ccc(COC(Cn2ccnc2)c2ccc(Cl)cc2Cl)cc1 (centres unmarked) [Econazole nitrate]

Turbidity (FNU) [2, 4]: 10.02 FNU
Compound: COc1ccc(C(=O)c2ccccc2)c(O)c1 [Eusolex 4360]

Turbidity (FNU) [2, 4]: 55.9 FNU
Compound: CCCC(=O)O[C@]1(C(=O)CO)CC[C@H]2[C@@H]3CCC4=CC(=O)CC[C@]4(C)[C@H]3[C@@H](O)C[C@@]21C [Hydrocortisone-17 butyrate]

Turbidity (FNU) [2, 5]: 10.00 FNU
Compound: C[C@]12CCC(=O)C=C1CC[C@@H]1[C@@H]2[C@@H](O)C[C@@]2(C)[C@H]1CC[C@]2(O)C(=O)CO [Hydrocortisone]

Average Turbidity [1]: >150 FNU
Compound: CCCCCCCCCCCC(=O)O [Lauric Acid, Dodecanoic acid]

Turbidity (FNU) [2, 6]: 61.70 FNU
Compound: CCCCCCCCCCCCOC(=O)[C@@H]1CCC(=O)N1 [Laurydone ®]

Turbidity (FNU) [2, 4]: 19.4 FNU
Compound: CC1=CCC(O)(C(C)C)CC1 (centres unmarked) [Melaleucol]

Turbidity (FNU) [2, 6]: 58.60 FNU
Compound: CCCCCCCCCCCCCCOC(=O)[C@@H]1CCC(=O)N1 [Myristidone ®]

Turbidity (FNU) [2, 4]: 40.5 FNU
Compound: CC(Cc1ccc(O)c(O)c1)C(C)Cc1ccc(O)c(O)c1 (centres unmarked) [NDGA]

Turbidity (FNU) [2, 4]: 14.99 FNU
Compound: COc1ccc2cc([C@H](C)C(=O)O)ccc2c1 [Naproxen]

Turbidity (FNU) [2, 4]: 19.76 FNU
Compound: NC[C@@H]1O[C@H](O[C@H]2[C@@H](O)[C@H](O[C@@H]3[C@@H](O)[C@H](N)C[C@H](N)[C@H]3O[C@H]3O[C@H](CN)[C@@H](O)[C@H](O)[C@H]3N)O[C@@H]2CO)[C@H](N)[C@@H](O)[C@@H]1O.O=S(=O)(O)O [Neomycin sulphate]

Compound: C[C@@H]1[C@H](O)[C@@H](C)/C=C/C=C/CC/C=C/C=C/C=C/C=C/C(O[C@H]2O[C@H](C)[C@@H](O)[C@H](N)[C@@H]2O)CC2O[C@](O)(CC(O)C(O)CCC(O)CC(O)CC(O)CC(=O)O[C@H]1C)CC(O)C2C(=O)O (some centres unmarked) [Nystatin]
Turbidity (FNU) [2, 4]: 21.3 FNU

Average Turbidity [1]: >150 FNU
Compound: CCCCCCCC(=O)O [Octanoic Acid, Octanoic acid]

Turbidity (FNU) [2, 5]: 9.10 FNU
Turbidity (FNU) ([2]; Surf. Brij 35P 2.5%, lipid 90H 1.0%, active agent 0.80%): 6.91 FNU
Compound: Cc1cc(CC(C)CC(C)(C)C)n(O)c(=O)c1.NCCO (centres unmarked) [Octopirox ®]

Turbidity (FNU) [2, 4]: 8.81 FNU
Compound: Nc1ccc(C(=O)O)cc1 [PABA]

Average Turbidity [1]: >150 FNU
Compound: CCCCCCCCCCCCCCCC(=O)O [Palmitic Acid, Hexadecanoic acid]

Compound: CCCCCCCC/C=C\CCCCCCCC(=O)[O-].[K+] [Potassium Oleate, Potassium oleate]
Average Turbidity [1]: >150 FNU

Turbidity (FNU) [2, 5]: 46.81 FNU
Compound: CC1CCC(C(C)C)C(OC(=O)[C@@H]2CCC(=O)N2)C1 (some centres unmarked) [Questice CQ U/A]

Turbidity (FNU) [2, 4]: 31.5 FNU
Compound: O=C(/C=C/c1ccc(O)c(O)c1)O[C@H](Cc1ccc(O)c(O)c1)C(=O)O [Rosmarinic acid (90%)]

Average Turbidity [1]: >150 FNU
Compound: O=C(O)c1ccccc1O [Salicylic Acid, 2-Hydroxybenzoic acid]

Turbidity (FNU) [2, 5]: 5.49 FNU
Compound: OCc1cc(C(O)CNCCCCCCOCCCCc2ccccc2)ccc1O (centres unmarked) [Salmeterol xinafoate]

Turbidity (FNU) [2, 5]: 10.43 FNU
Compound: C=CCCCCCCCCC(=O)N[C@@H](Cc1ccccc1)C(=O)O [SepiWhite MSH]

Average Turbidity [1]: 23.3 FNU
Compound: C[C@H](CCC(=O)[O-])[C@H]1CC[C@H]2[C@@H]3[C@H](O)C[C@@H]4C[C@H](O)CC[C@]4(C)[C@H]3C[C@H](O)[C@]12C.[Na+] [Sodium cholate]

Turbidity (FNU) [2, 4]: 88.9 FNU
Compound: CCCCCCCCCCCCCCCCCCOC(=O)[C@@]1(C)CC[C@]2(C)CC[C@]3(C)C(=CC(=O)[C@@H]4[C@@]5(C)CC[C@H](O)C(C)(C)[C@@H]5CC[C@]43C)[C@@H]2C1 [Stearyl glycrrhetinate]

Turbidity (FNU) [2, 5]: 12.89 FNU
Compound: CC(C)c1c(O)ccc2c1CC[C@H]1C(C)(C)CCC[C@]21C [Totarol ®]

Turbidity (FNU) ([2]; Surf. Brij 35P 2.5%, lipid 90H 1%, active agent […]): 14.59 FNU
Compound: CC12CCC(/C(=C\c3ccccc3)C1=O)C2(C)C (centres unmarked) [Unisol S-22]

Turbidity (FNU) [2, 5]: 9.85 FNU
Compound: COC(=O)[C@@H]1[C@H]2C[C@H]3c4[nH]c5ccccc5c4CCN3C[C@@H]2CC[C@@H]1O.Cl [Yohimbine HCl Crystalline]

Turbidity (FNU) ([2]; Surf. Brij 35P 2.5%, lipid 90H 1.0%, active agent 0.20%): 22.78 FNU
Compound: COC(=O)[C@@H]1[C@H]2C[C@H]3c4[nH]c5ccccc5c4CCN3C[C@@H]2CC[C@@H]1O.Cl [Yohimbine HCl USP HO]

Turbidity (FNU) [2, 5]: 13.42 FNU
Compound: COC(=O)[C@@H]1[C@H]2C[C@H]3c4[nH]c5ccccc5c4CCN3C[C@@H]2CC[C@@H]1O.Cl [Yohimbine HCl USP]

Average Turbidity [1]: 131 FNU
Compound: CCCCCCCCCCCCOCCOCCOCCOCCOCCOCCOCCOCCO [compound 74680, Laureth-8]
HLB number ([3]; literature or reported): 13.1
Average HLB [3]: 13.1

Average Turbidity [1]: >150 FNU
Compound: Laureth-9 [P9641]
Average HLB [3]: 13.3

Average Turbidity [1]: 14.02 FNU
Compound: Laureth-10 [P9769]
Average HLB [3]: 13.5

Compound: Sodium deoxycholate [reference compound]
Average Turbidity [1]: 32.6 FNU
Average HLB [3]: 24

Turbidity (FNU) ([2]; Surf. Protasorb L-20 2.5%, lipid 90H 1.0%, active agent 0.10%): 29.60 FNU
Compound: Vitamin E

— US20100062067A1, “COMPOSITIONS COMPRISING MACROMOLECULAR ASSEMBLIES OF LIPID AND SURFACTANT” (MALVERN COSMECEUTICS LIMITED, priority 2006, published 2010)
